Laboratory results as given in patent US20110112151A1, “COMPOUND CAPABLE OF INHIBITING 11-BETA HYDROXYSTERIOD DEHYDROGENASE” (priority 2008, published 2011).
Like-named read-outs stand apart in the source and are kept apart here. One block for each compound: values may come before it.

Target: T1, 11β-HSD1 (Homo sapiens, UniProt P28845)
T1 construct: expressed in transfected cells; host or cells: HEK 293 (stably transfected, HEK 293/HSD11B1)
Test: 11β-HSD1 HEK assay (cell based assay, SPA)
Experimental: 11β-HSD1 HEK Assay Protocol (Cell Based Assay)
11β-HSD1 activity is measured in whole HEK 293 cells stably transfected with the HSD11B1 gene. Cells are incubated in 96-well microplates in the presence of tritiated substrate. Enzyme activity is determined by measuring the amount of tritated product by scintillation proximity assay (SPA). Assay plates contain internal high and low controls to allow calculation of percentage inhibition.
1. […] 2. When the cells are 80% confluent the medium is removed from each well. 100 μl fresh, serum-free, medium containing ^3H-cortisone and test compound in 1% DMSO is added to each well*. Control wells are also dispensed. […] 3. The plate is incubated at 37° C. for the required time period. 4. 50 μl of media is removed from each well and transferred to a microplate containing 100 μl of a pre-incubated mixture of anti-cortisol antibody and SPA bead. The mixture is incubated with gentle shaking until equilibrium is reached, before transferring to a scintillation counter to establish the enzyme activity in each sample.
10 μl of compound is dispensed into each well of a 96-well microplate in 10% DMSO at 100 μM concentration. 90 μl media containing ^3H-cortisone is added to each well. The compound/media/substrate mixture is then transferred to the assay plate containing the cells. […]

[1] = HEK293, at 1 μM, whole HEK 293 cells stably transfected with the HSD11B1 gene, 3H-cortisone substrate, read-out: Activity (inhibition of 11β-HSD1)

T1 sequence (P28845 whole entry): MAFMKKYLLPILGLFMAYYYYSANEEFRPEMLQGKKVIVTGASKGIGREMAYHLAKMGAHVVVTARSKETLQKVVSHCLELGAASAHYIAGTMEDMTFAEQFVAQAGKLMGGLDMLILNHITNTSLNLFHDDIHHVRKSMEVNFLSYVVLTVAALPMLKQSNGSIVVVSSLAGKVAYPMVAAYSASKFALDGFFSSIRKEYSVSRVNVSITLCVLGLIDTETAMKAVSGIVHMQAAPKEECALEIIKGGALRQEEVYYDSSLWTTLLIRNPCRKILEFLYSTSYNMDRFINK

SMILES: Cn1ccnc1SCC(=O)C1(c2ccc(Cl)cc2)CC1 [Example 1, 1-[1-(4-Chloro-phenyl)-cyclopropyl]-2-(1-methyl-1H-imidazol-2-ylsulfanyl)-ethanone]
inhibition at 1 µM [1]: > 60%

SMILES: Cn1ccnc1[S+]([O-])CC(=O)C1(c2ccc(Cl)cc2)CC1 (stereo not drawn) [Example 2, 1-[1-(4-Chloro-phenyl)-cyclopropyl]-2-(1-methyl-1H-imidazole-2-sulfinyl)-ethanone]
inhibition at 1 µM [1]: < 20%

SMILES: Cn1ccnc1S(=O)(=O)CC(=O)C1(c2ccc(Cl)cc2)CC1 [Example 3, 1-[1-(4-Chloro-phenyl)-cyclopropyl]-2-(1-methyl-1H-imidazole-2-sulfonyl)-ethanone]
inhibition at 1 µM [1]: < 20%

SMILES: O=C(CSc1ccccn1)C1(c2ccc(Cl)cc2)CC1 [Example 4, 1-[1-(4-Chloro-phenyl)-cyclopropyl]-2-(pyridin-2-ylsulfanyl)-ethanone]
inhibition at 1 µM [1]: < 20%

SMILES: O=C(C[S+]([O-])c1ccccn1)C1(c2ccc(Cl)cc2)CC1 (stereo not drawn) [Example 5, 1-[1-(4-Chloro-phenyl)-cyclopropyl]-2-(pyridine-2-sulfinyl)-ethanone]
inhibition at 1 µM [1]: 20 to 60%

SMILES: O=C(CS(=O)(=O)c1ccccn1)C1(c2ccc(Cl)cc2)CC1 [Example 6, 1-[1-(4-Chloro-phenyl)-cyclopropyl]-2-(pyridine-2-sulfonyl)-ethanone]
inhibition at 1 µM [1]: < 20%

SMILES: O=C(CS(=O)(=O)Cc1cccnc1)C12CC3CC(CC(C3)C1)C2 [Example 9, 1-Adamantan-1-yl-2-(pyridin-3-ylmethanesulfonyl)-ethanone]
inhibition at 1 µM [1]: > 60%

SMILES: O=C(CSc1ccccn1)C12CC3CC(CC(C3)C1)C2 [Example 12, 1-Adamantan-1-yl-2-(pyridin-2-ylsulfanyl)-ethanone]
inhibition at 1 µM [1]: > 60%

SMILES: O=C(CS(=O)(=O)Cc1ccccn1)C12CC3CC(CC(C3)C1)C2 [Example 16, 1-Adamantan-1-yl-2-(pyridin-2-ylmethanesulfonyl)-ethanone]
inhibition at 1 µM [1]: > 60%

SMILES: O=C(CSc1ccccn1)C1(c2ccc(Cl)cc2)CCC1 [Example 20, 1-[1-(4-Chloro-phenyl)-cyclobutyl]-2-(pyridin-2-ylsulfanyl)-ethanone]
inhibition at 1 µM [1]: 20 to 60%

SMILES: Cn1ccnc1SCC(=O)C1(c2ccc(Cl)cc2)CCC1 [Example 21, 1-[1-(4-Chloro-phenyl)-cyclobutyl]-2-(1-methyl-1H-imidazol-2-ylsulfanyl)-ethanone]
inhibition at 1 µM [1]: 20 to 60%

SMILES: O=C(CS(=O)(=O)c1ccccn1)C1(c2ccc(Cl)cc2)CCC1 [Example 22]
inhibition at 1 µM [1]: < 20%

SMILES: Cn1ccnc1S(=O)(=O)CC(=O)C1(c2ccc(Cl)cc2)CCC1 [Example 24, 1-[1-(4-Chloro-phenyl)-cyclobutyl]-2-(1-methyl-1H-imidazole-2-sulfonyl)-ethanone]
inhibition at 1 µM [1]: < 20%

SMILES: Cn1ccnc1[S+]([O-])CC(=O)C1(c2ccc(Cl)cc2)CCC1 (stereo not drawn) [Example 25, 1-[1-(4-Chloro-phenyl)-cyclobutyl]-2-(1-methyl-1H-imidazole-2-sulfinyl)-ethanone]
inhibition at 1 µM [1]: < 20%

SMILES: Cc1cccc(S(=O)(=O)CC(=O)C23CC4CC(CC(C4)C2)C3)n1 [Example 30, 1-(adamantan-1-yl)-2-[(6-methylpyridine-2-)sulfonyl]ethan-1-one]
inhibition at 1 µM [1]: > 60%

SMILES: O=C(C[S+]([O-])c1ccncc1)C12CC3CC(CC(C3)C1)C2 (stereo not drawn) [Example 33, 1-(adamantan-1-yl)-2-(pyridine-4-sulfinyl)ethan-1-one]
inhibition at 1 µM [1]: > 60%

SMILES: NC(=O)c1ccc(SCC(=O)C23CC4CC(CC(C4)C2)C3)nc1 [Example 37, 6-(2-Adamantan-1-yl-2-oxo-ethylsulfanyl)-nicotinamide]
inhibition at 1 µM [1]: > 60%

SMILES: Cn1ccnc1SCC(=O)C1(c2ccc(Cl)cc2)CCCCC1 [Example 40, 1-[1-(4-Chloro-phenyl)-cyclohexyl]-2-(1-methyl-1H-imidazol-2-ylsulfanyl)-ethanone]
inhibition at 1 µM [1]: 20 to 60%

SMILES: Cn1ccnc1SCC(=O)C1(c2ccc(Cl)cc2)CCCC1 [Example 41, 1-[1-(4-Chloro-phenyl)-cyclopentyl]-2-(1-methyl-1H-imidazol-2-ylsulfanyl)-ethanone]
inhibition at 1 µM [1]: 20 to 60%

SMILES: O=C(COCc1ccccn1)C1(c2ccc(Cl)cc2)CCC1 [Example 42, 1-[1-(4-Chloro-phenyl)-cyclobutyl]-2-(pyridin-2-ylmethoxy)-ethanone]
inhibition at 1 µM [1]: < 20%

SMILES: Cn1ccnc1S(=O)(=O)CC(=O)C1(c2ccc(Cl)cc2)CCCC1 [Example 43, 1-[1-(4-Chloro-phenyl)-cyclopentyl]-2-(1-methyl-1H-imidazole-2-sulfonyl)-ethanone]
inhibition at 1 µM [1]: 20 to 60%

SMILES: Cn1ccnc1[S+]([O-])CC(=O)C1(c2ccc(Cl)cc2)CCCC1 (stereo not drawn) [Example 44, 1-[1-(4-Chloro-phenyl)-cyclopentyl]-2-(1-methyl-1H-imidazole-2-sulfinyl)-ethanone]
inhibition at 1 µM [1]: 20 to 60%

SMILES: Cn1ccnc1S(=O)(=O)CC(=O)C1(c2ccc(Cl)cc2)CCCCC1 [Example 45, 1-[1-(4-Chloro-phenyl)-cyclohexyl]-2-(1-methyl-H-imidazole-2-sulfonyl)-ethanone]
Activity (inhibition of 11β-HSD1) (at 1 μM, whole HEK 293 cells stably transfected with the HSD11B1 gene, 3H-cortisone substrate): b (from 20 to 60% inhibition of 11β-HSD1 at 1 μM)

SMILES: O=C(CSc1ccccn1)C1(c2ccc(Cl)cc2)CCCCC1 [Example 47, 1-[1-(4-Chloro-phenyl)-cyclohexyl]-2-(pyridin-2-ylsulfanyl)-ethanone]
inhibition at 1 µM [1]: 20 to 60%

SMILES: Cc1nnc(S(=O)(=O)CC(=O)C23CC4CC(CC(C4)C2)C3)s1 [Example 79, 1-Adamantan-1-yl-2-(5-methyl-[1,3,4]thiadiazole-2-sulfonyl)-ethanone]
inhibition at 1 µM (HEK293, read-out: Activity (inhibition of 11β-HSD1)): > 60%

The remaining lines, values ahead:

inhibition at 1 µM [1]: 20 to 60%
SMILES: O=C(CS(=O)(=O)c1ccccn1)C1(c2ccc(Cl)cc2)CCCCC1 [Example 48, 1-[1-(4-Chloro-phenyl)-cyclohexyl]-2-(pyridine-2-sulfonyl)-ethanone]

inhibition at 1 µM [1]: < 20%
SMILES: O=C(C[S+]([O-])c1ccccn1)C1(c2ccc(Cl)cc2)CCCCC1 (stereo not drawn) [Example 49, 1-[1-(4-Chloro-phenyl)-cyclohexyl]-2-(pyridine-2-sulfinyl)-ethanone]

inhibition at 1 µM [1]: > 60%
SMILES: Cn1ccnc1SCC(=O)C(C)(C)c1ccc(Cl)cc1 [Example 52, 3-(4-Chloro-phenyl)-3-methyl-1-(1-methyl-1H-imidazol-2-ylsulfanyl)-butan-2-one]

inhibition at 1 µM [1]: 20 to 60%
SMILES: O=C(COc1ccc(C(F)(F)F)cn1)C12CC3CC(CC(C3)C1)C2 [Example 55, 1-Adamantan-1-yl-2-(5-trifluoromethyl-pyridin-2-yloxy)-ethanone]

inhibition at 1 µM [1]: 20 to 60%
SMILES: O=C(COCc1ccc(C(F)(F)F)nc1)C12CC3CC(CC(C3)C1)C2 [Example 56, 1-Adamantan-1-yl-2-(6-trifluoromethyl-pyridin-3-ylmethoxy)-ethanone]

inhibition at 1 µM [1]: 20 to 60%
SMILES: O=C(COc1cncc(Cl)c1)C12CC3CC(CC(C3)C1)C2 [Example 57, 1-Adamantan-1-yl-2-(5-chloro-pyridin-3-yloxy)-ethanone]

inhibition at 1 µM [1]: 20 to 60%
SMILES: O=C(COc1cccc(Cl)n1)C12CC3CC(CC(C3)C1)C2 [Example 58, 1-Adamantan-1-yl-2-(6-chloro-pyridin-2-yloxy)-ethanone]

inhibition at 1 µM [1]: 20 to 60%
SMILES: O=C(CSCc1ccc(C(F)(F)F)nc1)C12CC3CC(CC(C3)C1)C2 [Example 59, 1-Adamantan-1-yl-2-(6-trifluoromethyl-pyridin-3-ylmethylsulfanyl)-ethanone]

inhibition at 1 µM [1]: > 60%
SMILES: O=C(C[S+]([O-])Cc1ccc(Cl)nc1)C12CC3CC(CC(C3)C1)C2 (stereo not drawn) [Example 65, 1-Adamantan-1-yl-2-(6-chloro-pyridin-3-ylmethanesulfinyl)-ethanone]

inhibition at 1 µM [1]: 20 to 60%
SMILES: O=C(C[S+]([O-])c1ccc(C(F)(F)F)cn1)C12CC3CC(CC(C3)C1)C2 (stereo not drawn) [Example 68, 1-Adamantan-1-yl-2-(5-trifluoromethyl-pyridine-2-sulfinyl)-ethanone]

inhibition at 1 µM [1]: 20 to 60%
SMILES: O=C(CS(=O)(=O)Cc1ccc(C(F)(F)F)nc1)C12CC3CC(CC(C3)C1)C2 [Example 69, 1-Adamantan-1-yl-2-(6-trifluoromethyl-pyridin-3-ylmethanesulfonyl)-ethanone]

inhibition at 1 µM [1]: < 20%
SMILES: Cc1cc(C)c(C(=O)COc2ccc(C)nc2)c(C)c1 [Example 70, 2-(6-Methyl-pyridin-3-yloxy)-1-(2,4,6-trimethyl-phenyl)-ethanone]

inhibition at 1 µM [1]: > 60%
SMILES: Cc1ccc(OCC(=O)C(C)(C)c2ccc(Cl)cc2)cn1 [Example 71, 3-(4-Chloro-phenyl)-3-methyl-1-(6-methyl-pyridin-3-yloxy)-butan-2-one]

inhibition at 1 µM [1]: < 20%
SMILES: Cc1cc(C)c(C(=O)COc2cccnc2)c(C)c1 [Example 72, 2-(Pyridin-3-yloxy)-1-(2,4,6-trimethyl-phenyl)-ethanone]

inhibition at 1 µM [1]: < 20%
SMILES: Cc1cc(C)c(C(=O)CSc2ccccn2)c(C)c1 [Example 73, 2-(Pyridin-2-ylsulfanyl)-1-(2,4,6-trimethyl-phenyl)-ethanone]

inhibition at 1 µM [1]: < 20%
SMILES: Cc1cc(C)c(C(=O)CSc2nccn2C)c(C)c1 [Example 74, 2-(1-Methyl-1H-imidazol-2-ylsulfanyl)-1-(2,4,6-trimethyl-phenyl)-ethanone]

inhibition at 1 µM [1]: < 20%
SMILES: Cc1cc(C)c(C(=O)CS(=O)(=O)c2ccccn2)c(C)c1 [Example 75, 2-(Pyridine-2-sulfonyl)-1-(2,4,6-trimethyl-phenyl)-ethanone]
